Patent US5028604A, “Condensed benzene derivative” (Zeria Pharmaceutical Co., Ltd., priority 1988, dated 1991)
Like-named read-outs stand apart in the source and are kept apart here.

Assays:
[1] = test system: ICR male mice; assay: Anti-Hypoxic Activity (survival time in 4% O2 + 96% N2); type: in vivo; details: Mus musculus, ip
Procedure: Groups of ICR male mice (Charles River Co.), age 4 to 5 weeks, each group consisting of 10 mice and each mouse having been fasted for 24 hours, were used for the test. Mice were placed in a transparent desiccator (diameter: 19 cm, height: 30 cm) made of synthetic resin and having 2 valves, one at the upper portion and the other at the lower portion, for replacing the gas therein. A mixed gas (4% O2 +96% N2) was fed from the upper valve at a rate of 10 l/min to measure the period of time until respiratory arrest took place for each mouse. The time measured was taken as the survival time.
Each tested compound suspended in an solvent was intraperitoneally administered 30 minutes before the start of the mixed gas feeding. A group of mice to which only the solvent was intraperitoneally administered was used as a control.
The anti-hypoxic activity was determined according to the following formula, [formula]

[2] = biological target: T1, prolyl endopeptidase from canine brain (Canis lupus familiaris, UniProt A0A8I3N6C8); assay: Inhibitory Activity Against Prolyl Endopeptidase From Brain; type: biochemical; details: 37° C., pH 7.0, substrate benzyloxycarbonylglycylprolylparanitroanilide; read-out: Inhibition Potency, IC50
T1 construct: A prolyl endopeptidase was prepared from canine brains; from tissue; host or cells: canine brain
Procedure: Following buffer solutions were used for the measurement.
Buffer A: 20 mM Tris-HCl buffer (pH 7.0)
Buffer B: Buffer A containing 0.1% gelatin, 1 mM EDTA, and 1 mM 2-mercaptoethanol
This solution (50 μl) was added to 940 μl of the Buffer A, and the solution thus obtained was left at 37° C. for 10 minutes (This solution is herein referred to as "Enzyme solution"). A mixed solution of 50 μl of the Buffer B and 940 μl of Buffer A was used as a "Correction solution".
A test compound was dissolved in dimethylsulfoxide, and 10 μl of the solution was added to the Enzyme solution. The mixture was stirred and allowed to stand at 37° C. for 10 minutes. Separately, 10 μl of dimethylsulfoxide was added to the Enzyme solution and was processed in the same manner. The solution thus obtained was served as a "Control solution". The same procedure was carried out on the Correction solution.
One hundred (100) μl of 2.5 mM benzyloxycarbonylglycylprolylparanitroanilide, which was dissolved with 40% dioxane, was added to each of the above 3 solutions, i.e., the Enzyme solution with the test compound, Control solution, and Correction solution, and the reaction was carried out at 37° C. for 10 minutes.
Enzyme activities were determined by subtracting the blank value, i.e., the absorbance measured on the Correction solution, from the absorbance of each of the sample solutions and of the Control solution.

[3] = test system: CD female rats; assay: Anti-Amnesic Activity (passive avoidance, electric convulsive shock); type: in vivo; details: 30 mg/kg P.O., one hour before acquisition trial; ECS; retention trial at 24 hours; solvent + sham 133.0, solvent + ECS 0.8
Procedure: Compounds of this invention were checked with respect to their abilities to prevent the inhibition of long-term memory fixation by electric convulsive shock (ECS). CD female rats (Charles River), weighed 160-180 g were used for the test. One hour after the administration of a compound of this invention, the acquisition trial according to the passive avoidance training was performed on the rats. A foot shock was given to the rats when they entered into a dark room. Immediately after that an amnesic treatment by ECS or a sham amnesic treatment was performed. Twenty four (24) hours after the acquisition trial the retention trial was performed. Latency of the […] entering into a dark room was measured.

[4] = 100 mg/kg i.p., 30 minutes before mixed gas, control = 100, read-out: Anti-hypoxic Activity
[5] = read-out: Anti-hypoxic Activity

T1 sequence (A0A8I3N6C8 1-710): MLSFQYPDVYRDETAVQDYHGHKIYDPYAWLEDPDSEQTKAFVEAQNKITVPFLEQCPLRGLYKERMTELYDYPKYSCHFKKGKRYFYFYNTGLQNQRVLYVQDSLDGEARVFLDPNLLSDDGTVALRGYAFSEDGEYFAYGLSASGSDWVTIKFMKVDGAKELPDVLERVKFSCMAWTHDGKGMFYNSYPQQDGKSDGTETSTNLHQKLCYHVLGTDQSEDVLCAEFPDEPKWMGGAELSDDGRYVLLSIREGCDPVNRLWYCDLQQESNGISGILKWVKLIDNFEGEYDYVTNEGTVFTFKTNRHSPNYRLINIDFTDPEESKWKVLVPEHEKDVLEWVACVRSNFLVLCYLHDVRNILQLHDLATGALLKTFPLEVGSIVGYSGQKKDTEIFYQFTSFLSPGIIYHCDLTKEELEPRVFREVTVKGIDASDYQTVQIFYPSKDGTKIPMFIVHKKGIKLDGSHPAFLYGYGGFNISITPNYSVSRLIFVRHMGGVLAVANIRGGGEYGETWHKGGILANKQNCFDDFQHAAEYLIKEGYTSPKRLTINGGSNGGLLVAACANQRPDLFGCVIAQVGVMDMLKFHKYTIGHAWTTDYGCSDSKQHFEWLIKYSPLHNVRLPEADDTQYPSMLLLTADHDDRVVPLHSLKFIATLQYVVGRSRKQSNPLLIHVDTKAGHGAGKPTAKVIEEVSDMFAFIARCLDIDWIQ

O=C([C@H]1CCCCN1C(=O)CC1Cc2ccccc2C1)N1CCCC1 [Example 11, 1-[1-(2-indanylacetyl)-D-piperidine-2-ylcarbonyl]pyrrolidine]
response vs control in vivo at 50 mg/kg ([1]; 50 mg/kg i.p., 30 minutes before mixed gas, control = 100): 141%

O=C(C1CSCCN1C(=O)CC1Cc2ccccc2C1)N1CCSC1 (racemic) [Example 5, 3-[4-(2-indanylacetyl)-DL-1,4-thiazan-3-ylcarbonyl]thiazolidine]
IC50 [2]: 0.022 µM

O=C([C@@H]1CCCCN1C(=O)CC1Cc2ccccc2C1)N1CCCC1 [Example 10, 1-[1-(2-indanylacetyl)-L-piperidine-2ylcarbonyl]pyrrolidine]
IC50 [2]: 0.049 µM

O=C[C@@H]1CCCN1C(=O)[C@@H]1CCCN1C(=O)CC1=Cc2ccccc2C1 [Example 42, 1-[1-(2-indenylacetyl)-L-prolyl]-L-prolinal]
response vs control in vivo at 100 mg/kg [1, 4]: 168%
IC50 [2]: 0.0013 µM

O=C([C@@H]1CCCN1C(=O)CC1=Cc2ccccc2C1)N1CCSC1 [Example 18, 3-[1-(2-indenylacetyl)-L-prolyl]thiazolidine]
IC50 [2]: 0.043 µM

COc1ccc(C(=O)N2CCCC2=O)cc1 [Aniracetam, reference compound]
response vs control in vivo at 100 mg/kg [1, 5]: 115%
response vs control in vivo at 300 mg/kg [1, 5]: 159%
IC50 [2]: > 1000 µM

O=C([C@@H]1CSCN1C(=O)CCCC1Cc2ccccc2C1)N1CCCC1 [Example 26, 1-{3-[4-(indan-2-yl)butanoyl]-L-thioprolyl}pyrrolidine]
response vs control in vivo at 100 mg/kg [1, 4]: 291%

CC(C)(CO)[C@@H](O)C(=O)NCCCC(=O)O [Calcium hopantenate, reference compound]
response vs control in vivo at 250 mg/kg ([1]; 250 mg/kg i.p., 30 minutes before mixed gas, control = 100): 135%

O=C([C@@H]1CCCN1C(=O)CC1CCc2ccccc2C1)N1CCCC1 (stereo partly drawn) [Example 24, 1-[1-(1,2,3,4-tetrahydronaphthalen-2-ylacetyl)-L-prolyl]pyrrolidine]
response vs control in vivo at 100 mg/kg [1, 4]: 235%

COC1=C(OC)C(=O)C(CCCCCCCCCCO)=C(C)C1=O [Idebenone, reference compound]
response vs control in vivo at 100 mg/kg [1, 4]: 140%

O=C([C@@H]1CSCN1C(=O)CC1Cc2ccccc2C1)N1CCCC1 [Example 2, 1-[3-(2-indanylacetyl)-L-thioprolyl]pyrrolidine]
response vs control in vivo at 100 mg/kg [1, 4]: 127%

O=C(O)[C@@H]1CCCN1C(=O)[C@@H]1CCCN1C(=O)CC1Cc2ccccc2C1 [Example 17, 1-[1-(2-indanylacetyl)-L-prolyl]-L-proline]
response vs control in vivo at 100 mg/kg [1, 4]: 137%

O=C([C@@H]1CCCN1C(=O)CC1Cc2ccccc2C1)N1CCCC1 [Example 4, 1-[1-(2-indanylacetyl)-L-prolyl]pyrrolidine]
response vs control in vivo at 100 mg/kg [1, 4]: 141%

O=C([C@@H]1CSCN1C(=O)CC1Cc2ccccc2C1)N1CCSC1 [Example 1, 3-[3-(2-indanylacetyl)-L-thioprolyl]thiazolidine]
Latency to entering into a dark room [3]: 77.0 s
response vs control in vivo at 100 mg/kg [1, 4]: 131%

O=C([C@@H]1CCCN1C(=O)CC1=Cc2ccccc2C1)N1CCCC1 [Example 19, 1-[1-(2-indenyl-acetyl)-L-prolyl]pyrrolidine]
response vs control in vivo at 100 mg/kg [1, 4]: 155%
